Legend:
Test in all cases: relative viability (nuclei count vs DMSO), 5 days (fraction); higher = more cells survive
NCI-H1355 = system: NCI-H1355
Summary of the method: (§1)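 After 5 days of treatment, lung cancer cells in 1536-well plates were fixed and stained in a single step (final 0.05% Triton X-100, 1% formaldehyde, 1 ug/ml Hoechst) and their nuclei counted on 4× images. Treatment had been applied by pin tool the day after seeding as one drug alone or as a fixed anchor-drug dose with five library-drug doses (not always all listed) in √10 steps. Relative viability is the nuclei count of treated wells divided by that of vehicle wells, and values are medians of duplicate plates.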

ChaGo-K-1 = system: ChaGo-K-1
Summary of the method: as §1

NCI-H2023 = system: NCI-H2023
Summary of the method: as §1

ABC-1 = system: ABC-1
Summary of the method: as §1

NCI-H2085 = system: NCI-H2085
Summary of the method: as §1

NCI-H1793 = system: NCI-H1793
Summary of the method: as §1

NCI-H2228 = system: NCI-H2228
Summary of the method: as §1

NCI-H2405 = system: NCI-H2405
Summary of the method: as §1

LCLC-103H = system: LCLC-103H
Summary of the method: as §1

NCI-H2347 = system: NCI-H2347
Summary of the method: as §1

NCI-H1734 = system: NCI-H1734
Summary of the method: as §1

HCC-827 = system: HCC-827
Summary of the method: as §1

HCC-15 = system: HCC-15
Summary of the method: as §1

NCI-H3122 = system: NCI-H3122
Summary of the method: as §1

COR-L23 = system: COR-L23
Summary of the method: as §1

SW 1573 = system: SW 1573
Summary of the method: as §1

NCI-H1944 = system: NCI-H1944
Summary of the method: as §1

EPLC-272H = system: EPLC-272H
Summary of the method: as §1

PC-14 = system: PC-14
Summary of the method: as §1

HCC-44 = system: HCC-44
Summary of the method: as §1

NCI-H2009 = system: NCI-H2009
Summary of the method: as §1

CN1CCN(CCOc2cc(OC3CCOCC3)c3c(Nc4c(Cl)ccc5c4OCO5)ncnc3c2)CC1 [Saracatinib] + CCNC(=O)c1noc(-c2cc(C(C)C)c(O)cc2O)c1-c1ccc(CN2CCOCC2)cc1 [Luminespib] (partner 0.01 µM)
relative viability (NCI-H1355; first compound 0.02 µM): 0.732
relative viability (NCI-H1355; first compound 0.2 µM): 0.544
relative viability (NCI-H1355; first compound 0.6325 µM): 0.697
relative viability (NCI-H1355; first compound 2 µM): 0.634
relative viability (ChaGo-K-1; first compound 0.02 µM): 0.663
relative viability (ChaGo-K-1; first compound 0.2 µM): 0.388
relative viability (ChaGo-K-1; first compound 0.6325 µM): 0.7
relative viability (ChaGo-K-1; first compound 2 µM): 0.555
relative viability (NCI-H2023; first compound 0.02 µM): 0.773
relative viability (NCI-H2023; first compound 0.6325 µM): 0.735
relative viability (NCI-H2023; first compound 2 µM): 0.471
relative viability (ABC-1; first compound 0.02 µM): 0.721
relative viability (ABC-1; first compound 0.2 µM): 0.43
relative viability (ABC-1; first compound 0.6325 µM): 0.599
relative viability (ABC-1; first compound 2 µM): 0.766
relative viability (NCI-H2085; first compound 0.02 µM): 0.411
relative viability (NCI-H2085; first compound 0.2 µM): 0.347
relative viability (NCI-H2085; first compound 0.6325 µM): 0.481
relative viability (NCI-H2085; first compound 2 µM): 0.429
relative viability (NCI-H1793; first compound 0.02 µM): 0.2
relative viability (NCI-H1793; first compound 0.6325 µM): 0.173
relative viability (NCI-H1793; first compound 2 µM): 0.177
relative viability (NCI-H2228; first compound 0.02 µM): 0.157
relative viability (NCI-H2228; first compound 0.2 µM): 0.167
relative viability (NCI-H2228; first compound 0.6325 µM): 0.0897
relative viability (NCI-H2228; first compound 2 µM): 0.116
relative viability (NCI-H2405; first compound 0.02 µM): 0.588
relative viability (NCI-H2405; first compound 0.2 µM): 0.525
relative viability (NCI-H2405; first compound 0.6325 µM): 0.519
relative viability (NCI-H2405; first compound 2 µM): 0.271
relative viability (LCLC-103H; first compound 0.02 µM): 1.02
relative viability (LCLC-103H; first compound 0.2 µM): 0.902
relative viability (LCLC-103H; first compound 0.6325 µM): 0.975
relative viability (LCLC-103H; first compound 2 µM): 0.9
relative viability (NCI-H2347; first compound 0.02 µM): 0.372
relative viability (NCI-H2347; first compound 0.2 µM): 0.411
relative viability (NCI-H2347; first compound 0.6325 µM): 0.774
relative viability (NCI-H2347; first compound 2 µM): 0.416
relative viability (NCI-H1734; first compound 0.02 µM): 0.224
relative viability (NCI-H1734; first compound 0.6325 µM): 0.213
relative viability (NCI-H1734; first compound 2 µM): 0.181
relative viability (HCC-827; first compound 0.02 µM): 0.709
relative viability (HCC-827; first compound 0.2 µM): 0.311
relative viability (HCC-827; first compound 0.6325 µM): 0.241
relative viability (HCC-827; first compound 2 µM): 0.136
relative viability (HCC-15; first compound 0.02 µM): 0.343
relative viability (HCC-15; first compound 0.2 µM): 0.32
relative viability (HCC-15; first compound 0.6325 µM): 0.331
relative viability (HCC-15; first compound 2 µM): 0.176
relative viability (NCI-H3122; first compound 0.02 µM): 0.0855
relative viability (NCI-H3122; first compound 0.2 µM): 0.103
relative viability (NCI-H3122; first compound 0.6325 µM): 0.0549
relative viability (NCI-H3122; first compound 2 µM): 0.076
relative viability (COR-L23; first compound 0.02 µM): 0.694
relative viability (COR-L23; first compound 0.2 µM): 0.605
relative viability (COR-L23; first compound 0.6325 µM): 0.575
relative viability (COR-L23; first compound 2 µM): 0.558
relative viability (SW 1573; first compound 0.02 µM): 0.195
relative viability (SW 1573; first compound 0.2 µM): 0.217
relative viability (SW 1573; first compound 0.6325 µM): 0.374
relative viability (SW 1573; first compound 2 µM): 0.15
relative viability (NCI-H1944; first compound 0.02 µM): 0.826
relative viability (NCI-H1944; first compound 0.6325 µM): 0.846
relative viability (NCI-H1944; first compound 2 µM): 0.459
relative viability (EPLC-272H; first compound 0.02 µM): 0.24
relative viability (EPLC-272H; first compound 0.2 µM): 0.382
relative viability (EPLC-272H; first compound 0.6325 µM): 0.123
relative viability (EPLC-272H; first compound 2 µM): 0.197
relative viability (PC-14; first compound 0.02 µM): 0.175
relative viability (PC-14; first compound 0.2 µM): 0.183
relative viability (PC-14; first compound 0.6325 µM): 0.173
relative viability (PC-14; first compound 2 µM): 0.227
relative viability (HCC-44; first compound 0.02 µM): 0.972
relative viability (HCC-44; first compound 0.2 µM): 0.921
relative viability (HCC-44; first compound 0.6325 µM): 1.32
relative viability (HCC-44; first compound 2 µM): 0.952
relative viability (NCI-H2009; first compound 0.02 µM): 0.997
relative viability (NCI-H2009; first compound 0.2 µM): 1.04
relative viability (NCI-H2009; first compound 0.6325 µM): 0.951
relative viability (NCI-H2009; first compound 2 µM): 0.913

— the supplement of paper PMC10307832
